Reference: ChEMBL document CHEMBL3797029, “Purinylpyridinylamino-based DFG-in/αC-helix-out B-Raf inhibitors: Applying mutant versus wild-type B-Raf selectivity indices for compound profiling” (Bioorg Med Chem, 2016)

Legend:
Set-up in all cases: scale not given: the % may be the effect or the level left
[1] = molecular target: Fibroblast growth factor receptor 1 (Homo sapiens) (UniProt P11362); assay: Inhibition of partial length wild type human FGFR1 expressed in bacterial system assessed as enzyme activity at 1 uM relative to control
[2] = molecular target: Ribosomal protein S6 kinase beta-1 (Homo sapiens) (UniProt P23443); assay: Inhibition of partial length wild type human S6K1 expressed in mammalian system assessed as enzyme activity at 1 uM relative to control
[3] = molecular target: Serine/threonine-protein kinase 33 (Homo sapiens) (UniProt Q9BYT3); assay: Inhibition of full length wild type human STK33 expressed in bacterial system assessed as enzyme activity at 1 uM relative to control
[4] = molecular target: Protein kinase C epsilon type (Homo sapiens) (UniProt Q02156); assay: Inhibition of partial length wild type human PRKCE expressed in mammalian system assessed as enzyme activity at 1 uM relative to control
[5] = molecular target: Epidermal growth factor receptor (Homo sapiens) (UniProt P00533); assay: Inhibition of partial length wild type human EGFR expressed in bacterial system assessed as enzyme activity at 1 uM relative to control
[6] = molecular target: Rho-associated protein kinase 2 (Homo sapiens) (UniProt O75116); assay: Inhibition of partial length wild type human ROCK2 expressed in mammalian system assessed as enzyme activity at 1 uM relative to control
[7] = molecular target: Tyrosine-protein kinase Lck (Homo sapiens) (UniProt P06239); assay: Inhibition of partial length wild type human LCK expressed in bacterial system assessed as enzyme activity at 1 uM relative to control
[8] = molecular target: Serine/threonine-protein kinase PAK 2 (Homo sapiens) (UniProt Q13177); assay: Inhibition of partial length wild type human PAK2 expressed in bacterial system assessed as enzyme activity at 1 uM relative to control
[9] = molecular target: 5'-AMP-activated protein kinase catalytic subunit alpha-1 (Homo sapiens) (UniProt Q13131); assay: Inhibition of partial length wild type human AMPKalpha1 expressed in bacterial system assessed as enzyme activity at 1 uM relative to control
[10] = molecular target: Insulin-like growth factor 1 receptor (Homo sapiens) (UniProt P08069); assay: Inhibition of partial length wild type human IGF1R expressed in bacterial system assessed as enzyme activity at 1 uM relative to control
[11] = molecular target: Cyclin-dependent kinase 4/cyclin D1 (Homo sapiens) (UniProt P11802+P24385); assay: Inhibition of full length wild type human CDK4-cyclinD1 expressed in mammalian system assessed as enzyme activity at 1 uM relative to control
[12] = molecular target: cGMP-dependent protein kinase 1 (Homo sapiens) (UniProt Q13976); assay: Inhibition of partial length wild type human PRKG1 expressed in bacterial system assessed as enzyme activity at 1 uM relative to control
[13] = molecular target: Rhodopsin kinase GRK1 (Homo sapiens) (UniProt Q15835); assay: Inhibition of full length wild type human GRK1 expressed in mammalian system assessed as enzyme activity at 1 uM relative to control
[14] = molecular target: Serine/threonine-protein kinase pim-1 (Homo sapiens) (UniProt P11309); assay: Inhibition of partial length wild type human PIM1 expressed in bacterial system assessed as enzyme activity at 1 uM relative to control
[15] = molecular target: Casein kinase I isoform gamma-2 (Homo sapiens) (UniProt P78368); assay: Inhibition of full length wild type human CSNK1G2 expressed in bacterial system assessed as enzyme activity at 1 uM relative to control
[16] = molecular target: Mitogen-activated protein kinase kinase kinase 9 (Homo sapiens) (UniProt P80192); assay: Inhibition of partial length wild type human MLK1 expressed in bacterial system assessed as enzyme activity at 1 uM relative to control
[17] = molecular target: LIM domain kinase 1 (Homo sapiens) (UniProt P53667); assay: Inhibition of full length wild type human LIMK1 expressed in bacterial system assessed as enzyme activity at 1 uM relative to control
[18] = molecular target: Mitogen-activated protein kinase 14 (Homo sapiens) (UniProt Q16539); assay: Inhibition of full length wild type human p38alpha expressed in bacterial system assessed as enzyme activity at 1 uM relative to control
[19] = molecular target: Serine/threonine-protein kinase Chk1 (Homo sapiens) (UniProt O14757); assay: Inhibition of partial length wild type human CHEK1 expressed in bacterial system assessed as enzyme activity at 1 uM relative to control
[20] = molecular target: Insulin receptor (Homo sapiens) (UniProt P06213); assay: Inhibition of partial length wild type human INSR expressed in mammalian system assessed as enzyme activity at 1 uM relative to control
[21] = molecular target: Tyrosine-protein kinase ABL1 (Homo sapiens) (UniProt P00519); assay: Inhibition of partial length wild type nonphosphorylated human ABL1 expressed in mammalian system assessed as enzyme activity at 1 uM relative to control
[22] = molecular target: Epithelial discoidin domain-containing receptor 1 (Homo sapiens) (UniProt Q08345); assay: Inhibition of partial length wild type human DDR1 expressed in bacterial system assessed as enzyme activity at 1 uM relative to control
[23] = molecular target: Calcium/calmodulin-dependent protein kinase type II subunit delta (Homo sapiens) (UniProt Q13557); assay: Inhibition of partial length wild type human CAMK2delta expressed in bacterial system assessed as enzyme activity at 1 uM relative to control
[24] = molecular target: TGF-beta receptor type-1 (Homo sapiens) (UniProt P36897); assay: Inhibition of partial length wild type human TGFBR1 expressed in bacterial system assessed as enzyme activity at 1 uM relative to control
[25] = molecular target: Ribosomal protein S6 kinase alpha-1 (Homo sapiens) (UniProt Q15418); assay: Inhibition of partial length wild type human RSK1(Kin.Dom.1-N-terminal) expressed in bacterial system assessed as enzyme activity at 1 uM relative to control
[26] = molecular target: Cyclin-dependent kinase 18 (Homo sapiens) (UniProt Q07002); assay: Inhibition of full length wild type human PCTK3 expressed in bacterial system assessed as enzyme activity at 1 uM relative to control
[27] = molecular target: Dual specificity protein kinase CLK4 (Homo sapiens) (UniProt Q9HAZ1); assay: Inhibition of partial length wild type human CLK4 expressed in bacterial system assessed as enzyme activity at 1 uM relative to control
[28] = molecular target: Ephrin type-A receptor 2 (Homo sapiens) (UniProt P29317); assay: Inhibition of partial length wild type human EPHA2 expressed in bacterial system assessed as enzyme activity at 1 uM relative to control
[29] = molecular target: Mitogen-activated protein kinase 12 (Homo sapiens) (UniProt P53778); assay: Inhibition of full length wild type human p38gamma expressed in bacterial system assessed as enzyme activity at 1 uM relative to control
[30] = molecular target: Angiopoietin-1 receptor (Homo sapiens) (UniProt Q02763); assay: Inhibition of partial length wild type human TIE2 expressed in bacterial system assessed as enzyme activity at 1 uM relative to control
[31] = molecular target: Aurora kinase A (Homo sapiens) (UniProt O14965); assay: Inhibition of partial length wild type human AURKA expressed in mammalian system assessed as enzyme activity at 1 uM relative to control
[32] = molecular target: Tyrosine-protein kinase SYK (Homo sapiens) (UniProt P43405); assay: Inhibition of partial length wild type human SYK expressed in bacterial system assessed as enzyme activity at 1 uM relative to control

Sequence of Ribosomal protein S6 kinase beta-1 (Homo sapiens) (P23443 whole entry, looked up): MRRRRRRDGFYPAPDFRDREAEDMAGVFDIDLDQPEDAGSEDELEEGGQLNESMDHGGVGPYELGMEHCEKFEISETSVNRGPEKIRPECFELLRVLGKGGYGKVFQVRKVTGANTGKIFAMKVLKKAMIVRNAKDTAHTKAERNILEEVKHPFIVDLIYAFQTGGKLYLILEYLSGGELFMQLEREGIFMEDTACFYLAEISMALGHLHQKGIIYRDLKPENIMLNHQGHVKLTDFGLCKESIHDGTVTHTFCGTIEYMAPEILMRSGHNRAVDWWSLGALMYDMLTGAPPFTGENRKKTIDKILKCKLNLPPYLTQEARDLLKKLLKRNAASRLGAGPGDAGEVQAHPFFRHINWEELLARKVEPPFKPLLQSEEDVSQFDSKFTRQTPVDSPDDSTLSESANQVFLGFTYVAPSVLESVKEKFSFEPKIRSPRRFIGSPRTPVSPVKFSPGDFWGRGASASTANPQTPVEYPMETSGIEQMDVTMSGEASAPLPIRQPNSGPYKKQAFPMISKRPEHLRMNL
Sequence of Rhodopsin kinase GRK1 (Homo sapiens) (Q15835 whole entry): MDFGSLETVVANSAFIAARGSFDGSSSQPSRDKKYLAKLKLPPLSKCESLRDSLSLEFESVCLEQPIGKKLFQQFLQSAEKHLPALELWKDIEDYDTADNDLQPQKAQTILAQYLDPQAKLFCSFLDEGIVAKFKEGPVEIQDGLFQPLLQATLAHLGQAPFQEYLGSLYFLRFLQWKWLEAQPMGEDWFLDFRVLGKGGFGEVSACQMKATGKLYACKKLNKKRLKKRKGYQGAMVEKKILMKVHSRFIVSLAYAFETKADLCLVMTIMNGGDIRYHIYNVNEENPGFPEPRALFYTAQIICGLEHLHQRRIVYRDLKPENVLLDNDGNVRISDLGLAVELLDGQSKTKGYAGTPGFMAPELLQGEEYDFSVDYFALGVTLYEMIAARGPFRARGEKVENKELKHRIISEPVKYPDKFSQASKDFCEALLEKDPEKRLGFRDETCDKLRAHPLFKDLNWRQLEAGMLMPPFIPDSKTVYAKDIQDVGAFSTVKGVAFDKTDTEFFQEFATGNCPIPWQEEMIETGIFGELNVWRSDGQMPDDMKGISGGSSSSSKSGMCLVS
Sequence of Epithelial discoidin domain-containing receptor 1 (Homo sapiens) (Q08345 whole entry, the tested form may be a part): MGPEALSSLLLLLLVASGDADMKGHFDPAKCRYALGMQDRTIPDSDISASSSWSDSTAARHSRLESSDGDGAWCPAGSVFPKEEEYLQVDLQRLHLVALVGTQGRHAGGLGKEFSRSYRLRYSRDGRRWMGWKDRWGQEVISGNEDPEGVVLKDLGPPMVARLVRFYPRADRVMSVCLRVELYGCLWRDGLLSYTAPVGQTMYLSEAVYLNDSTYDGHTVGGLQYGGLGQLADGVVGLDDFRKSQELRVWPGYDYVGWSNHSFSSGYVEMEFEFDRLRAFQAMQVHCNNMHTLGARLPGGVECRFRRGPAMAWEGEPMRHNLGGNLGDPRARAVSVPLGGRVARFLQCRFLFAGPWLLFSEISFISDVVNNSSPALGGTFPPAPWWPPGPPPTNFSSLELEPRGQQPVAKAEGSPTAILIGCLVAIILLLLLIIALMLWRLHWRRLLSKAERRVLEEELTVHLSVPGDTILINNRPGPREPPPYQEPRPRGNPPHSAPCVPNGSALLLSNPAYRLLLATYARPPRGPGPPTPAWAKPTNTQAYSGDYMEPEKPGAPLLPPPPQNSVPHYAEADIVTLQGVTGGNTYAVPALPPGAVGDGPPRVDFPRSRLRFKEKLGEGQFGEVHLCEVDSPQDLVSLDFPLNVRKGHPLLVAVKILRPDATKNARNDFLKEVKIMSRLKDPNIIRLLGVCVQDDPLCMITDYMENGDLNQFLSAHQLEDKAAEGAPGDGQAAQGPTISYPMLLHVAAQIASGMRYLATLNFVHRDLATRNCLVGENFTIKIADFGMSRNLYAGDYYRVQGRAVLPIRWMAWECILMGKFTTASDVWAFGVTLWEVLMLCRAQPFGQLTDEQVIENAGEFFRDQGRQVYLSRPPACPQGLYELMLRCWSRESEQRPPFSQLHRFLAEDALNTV
Sequence of Serine/threonine-protein kinase Chk1 (Homo sapiens) (O14757 whole entry): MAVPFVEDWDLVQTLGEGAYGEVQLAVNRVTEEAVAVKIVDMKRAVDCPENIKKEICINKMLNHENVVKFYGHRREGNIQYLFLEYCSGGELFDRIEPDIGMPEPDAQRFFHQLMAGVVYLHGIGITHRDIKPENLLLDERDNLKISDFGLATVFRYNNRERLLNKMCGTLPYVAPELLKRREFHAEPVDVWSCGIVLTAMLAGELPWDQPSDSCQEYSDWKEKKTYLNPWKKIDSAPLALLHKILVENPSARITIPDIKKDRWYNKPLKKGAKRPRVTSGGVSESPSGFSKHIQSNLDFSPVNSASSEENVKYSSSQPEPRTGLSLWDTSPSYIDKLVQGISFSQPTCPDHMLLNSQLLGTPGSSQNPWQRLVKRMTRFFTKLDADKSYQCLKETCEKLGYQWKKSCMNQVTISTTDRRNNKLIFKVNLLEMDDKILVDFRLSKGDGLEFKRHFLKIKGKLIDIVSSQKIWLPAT
Sequence of Ribosomal protein S6 kinase alpha-1 (Homo sapiens) (Q15418 whole entry): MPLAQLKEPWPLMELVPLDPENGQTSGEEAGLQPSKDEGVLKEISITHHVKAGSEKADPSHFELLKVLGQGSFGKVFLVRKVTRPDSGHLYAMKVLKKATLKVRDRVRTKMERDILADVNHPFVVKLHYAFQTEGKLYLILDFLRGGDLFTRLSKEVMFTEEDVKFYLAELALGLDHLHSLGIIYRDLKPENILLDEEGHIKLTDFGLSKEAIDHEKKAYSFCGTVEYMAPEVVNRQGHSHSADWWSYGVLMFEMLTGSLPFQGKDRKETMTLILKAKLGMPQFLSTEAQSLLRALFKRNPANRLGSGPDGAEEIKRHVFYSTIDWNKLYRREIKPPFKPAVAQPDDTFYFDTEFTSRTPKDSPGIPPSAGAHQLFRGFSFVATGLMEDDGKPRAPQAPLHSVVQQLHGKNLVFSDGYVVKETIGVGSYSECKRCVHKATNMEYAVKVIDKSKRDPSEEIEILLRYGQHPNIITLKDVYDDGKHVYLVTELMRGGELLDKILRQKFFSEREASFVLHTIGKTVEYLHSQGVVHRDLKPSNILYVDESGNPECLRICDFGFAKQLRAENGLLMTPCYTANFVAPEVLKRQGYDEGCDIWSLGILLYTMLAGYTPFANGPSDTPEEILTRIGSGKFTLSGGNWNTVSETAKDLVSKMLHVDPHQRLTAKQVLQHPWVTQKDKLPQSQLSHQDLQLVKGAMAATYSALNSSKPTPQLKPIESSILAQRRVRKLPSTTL
Sequence of Insulin-like growth factor 1 receptor (Homo sapiens) (P08069 31-736 limits assumed): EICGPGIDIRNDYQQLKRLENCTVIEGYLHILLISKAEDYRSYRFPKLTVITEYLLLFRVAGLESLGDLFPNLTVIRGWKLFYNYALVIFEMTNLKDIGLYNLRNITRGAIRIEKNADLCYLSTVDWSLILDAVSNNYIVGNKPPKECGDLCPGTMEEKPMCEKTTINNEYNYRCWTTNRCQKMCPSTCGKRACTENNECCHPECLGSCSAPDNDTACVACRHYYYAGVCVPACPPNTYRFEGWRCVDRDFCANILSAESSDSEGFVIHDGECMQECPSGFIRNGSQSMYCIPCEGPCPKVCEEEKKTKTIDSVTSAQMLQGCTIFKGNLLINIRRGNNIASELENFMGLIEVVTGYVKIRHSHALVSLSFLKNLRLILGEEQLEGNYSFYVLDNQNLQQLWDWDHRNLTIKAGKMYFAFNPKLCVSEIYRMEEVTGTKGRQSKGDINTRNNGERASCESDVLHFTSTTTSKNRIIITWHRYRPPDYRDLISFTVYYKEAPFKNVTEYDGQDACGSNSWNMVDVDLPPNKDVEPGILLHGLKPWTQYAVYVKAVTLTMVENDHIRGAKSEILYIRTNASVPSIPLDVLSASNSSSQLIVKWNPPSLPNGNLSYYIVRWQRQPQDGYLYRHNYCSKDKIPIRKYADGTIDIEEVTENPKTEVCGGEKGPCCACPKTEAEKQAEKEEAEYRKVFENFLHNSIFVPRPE
Sequence of Insulin-like growth factor 1 receptor (Homo sapiens) (P08069 741-1367 limits assumed): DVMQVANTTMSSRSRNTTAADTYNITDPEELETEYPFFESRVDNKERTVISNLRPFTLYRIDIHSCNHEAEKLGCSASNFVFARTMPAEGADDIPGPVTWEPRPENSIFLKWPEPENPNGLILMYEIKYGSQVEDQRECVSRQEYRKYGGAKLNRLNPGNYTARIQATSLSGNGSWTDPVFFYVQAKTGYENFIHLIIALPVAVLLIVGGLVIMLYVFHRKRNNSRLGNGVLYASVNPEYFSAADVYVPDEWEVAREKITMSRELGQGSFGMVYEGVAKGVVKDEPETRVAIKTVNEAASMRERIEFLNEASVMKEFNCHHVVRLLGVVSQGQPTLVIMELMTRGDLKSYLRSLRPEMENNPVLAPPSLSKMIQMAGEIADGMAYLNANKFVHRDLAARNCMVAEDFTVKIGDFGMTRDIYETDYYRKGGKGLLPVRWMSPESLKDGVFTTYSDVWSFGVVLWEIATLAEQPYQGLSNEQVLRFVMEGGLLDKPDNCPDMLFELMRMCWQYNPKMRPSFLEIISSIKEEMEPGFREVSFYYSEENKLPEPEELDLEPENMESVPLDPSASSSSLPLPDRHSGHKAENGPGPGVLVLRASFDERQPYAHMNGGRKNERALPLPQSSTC
Sequence of Serine/threonine-protein kinase pim-1 (Homo sapiens) (P11309 whole entry, looked up, canonical isoform): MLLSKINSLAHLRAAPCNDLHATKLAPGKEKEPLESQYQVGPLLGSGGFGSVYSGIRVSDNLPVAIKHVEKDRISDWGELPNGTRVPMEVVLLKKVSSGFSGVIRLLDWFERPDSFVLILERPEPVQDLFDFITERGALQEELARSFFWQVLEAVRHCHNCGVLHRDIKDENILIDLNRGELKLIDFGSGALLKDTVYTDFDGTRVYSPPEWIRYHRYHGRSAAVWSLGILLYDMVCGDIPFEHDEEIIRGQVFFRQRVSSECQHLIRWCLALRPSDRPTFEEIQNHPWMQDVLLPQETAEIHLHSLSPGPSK

Activity [1]: 83%
Activity [2]: 100%
Activity [3]: 100%
Activity [4]: 87%
Activity [5]: 66%
Activity [6]: 92%
Activity [7]: 79%
Activity [8]: 94%
Activity [9]: 92%
Activity [10]: 98%
Activity [11]: 98%
Activity [12]: 92%
Activity [13]: 76%
Activity [14]: 83%
Activity [15]: 60%
Activity [16]: 96%
Activity [17]: 57%
Activity [18]: 91%
Activity [19]: 86%
Activity [20]: 100%
Activity [21]: 96%
Activity [22]: 88%
Activity [23]: 83%
Activity [24]: 65%
Activity [25]: 94%
Activity [26]: 89%
Activity [27]: 70%
Activity [28]: 74%
Activity [29]: 100%
Activity [30]: 63%
Activity [31]: 73%
Activity [32]: 76%
Structure (SMILES): CN(C)S(=O)(=O)Nc1ccc(F)c(Nc2ncccc2-c2ncnc3[nH]cnc23)c1F
